Usually melting point stands for the temperature, or range, at which the solid turns liquid.

Our source for the melting point values is a melting point compilation (Tetko et al.; mined from patent text by program, amines drawn as free bases though some values may be those of a salt).

Regarding `CCN(C)c1nc(-c2cc(OC)c(OC)c(OC)c2)nc2sc(C#N)c(C)c12`, the melting point lay within 163 to 164 °C. The figure for `NC(=O)c1sc2nccc(N3CCCN(c4ccccc4)CC3)c2c1N` is 215 to 218 °C; for `COC(=O)[C@@H](CC(C)C)NC(=O)c1ccc2c(c1)OCO2` it is 89 to 90 °C. Regarding `O=C(O)c1cc2ccc3[nH]ccc3c2[nH]1`, the melting point is 248 to 250 °C. The figure for `Cc1noc2cc3c(cc12)C1(CO3)C(=O)Nc2ccccc21` (stereo not given) is 226 to 227 °C. In the case of `CCOc1nn(C(=S)Oc2ccccc2)c(=O)n1C`, the melting point stood at 123 °C. In turn, `CCCCCCCCCCCCCCCC(=O)OCC1OC(n2cc(C)c(=O)[nH]c2=O)CC1F` (stereo not given) registered a melting point of 65 to 66 °C. The same measure for `FC(F)(F)Oc1ccc(-c2cc(-n3ccc(C(F)(F)F)n3)c3ccccc3n2)cc1`: 108 to 110 °C. The same measure for `Cc1cc(C)cc(C(=O)N2CCN(C(=O)CCNC3CCN(Cc4ccccc4)CC3)C(c3ccc(Cl)c(Cl)c3)C2)c1` (stereo not given): 51 to 54 °C. `COc1cc(OC)cc(-c2nc3ccc(Nc4ccncc4)cc3c(=O)[nH]2)c1`: the melting point was 289 to 290 °C. The same measure for `CC1(C)C=C(C(=O)NCC2COC(C)(C)O2)C(C)(C)N1` (stereo not given): 55 to 57 °C. The figure for `CC(=O)N1N=C2C(=Cc3ccccc3)CS(=O)(=O)CC2C1c1ccccc1` (stereo not given) is 218 to 220 °C; for `O=[N+]([O-])c1cccc2c(Cl)ccnc12` it is 144 to 146 °C.

With `CN(C)CCCC(N)=S`, the melting point worked out at 77 °C. The same measure for `CCOC(=O)c1cc2ccc3c(c2cc1OC)OC(n1cccc1)=C(C#N)C3c1cccc([N+](=O)[O-])c1` (stereo not given): 190 to 191 °C; for `O=C1CCCc2cc3c(cc21)sc1ccccc13`: 160 to 165 °C. The same measure for `CCCc1c(C(=O)C(C)C)c2ccc(C(N)=O)cc2n1Cc1c(Cl)cccc1Cl`: 208 to 209 °C. The same measure for `CCS(=O)(=O)c1cc2c(c(C(=O)O)c1)OCCO2`: 217 to 218 °C; for `CCN(CC)CCOc1ccc(Nc2ncc3c(n2)N(C)C(=O)N(C(C)C)C3)cc1`: 154 °C. Molecule `Nc1cccc(C(O)c2cc3c(Oc4ccc(Cl)cc4)cncc3s2)c1` (stereo not given) gave a melting point of 73 to 78 °C.

On to `CC(=O)NCC1CN(c2ccc(N3CCN(c4nnc(C)s4)CC3)c(F)c2)C(=O)O1` (stereo not given), for which the melting point fell in the range of 247 to 249 °C. For the molecule `O=C(NN=C1c2ccc(F)cc2CCC1c1ccccc1)Nc1ccc(C(F)(F)F)cc1` (stereo not given), the melting point fell in the range of 158 to 160 °C. The figure for `C=CCOC(=O)Nc1sc(-c2cccc(Cl)c2)cc1C(=O)OC` is 149 to 150 °C; for `Cc1cc(C)c(S(=O)(=O)NCC2CCN(S(=O)(=O)c3c(C)cc(C)cc3C)CC2)c(C)c1` it is 202 to 204 °C. The same measure for `Nc1cc(=O)nc(Nc2ccccc2)n1-c1ccc(Br)cc1`: 211 to 213 °C; for `COC(=O)C(=CNc1c(-c2ccccc2)csc1C(=O)O)SC`: 90 to 92 °C.

As for `COc1cc2c(cc1OC)CN(CCCCc1ccc(NC(=O)c3nc4ccccc4nc3C)cc1)CC2`, the melting point amounted to 146 °C.

In turn, `CC1CCCC(C)C1=CC1C(C(=O)O)C1(C)C` (stereo not given) gave a melting point of 96 °C. The same measure for `O=C1c2cccc(OCc3ccccc3)c2C(=O)c2c(Cl)ccc(Cl)c21`: 122 to 126 °C; for `COc1ccc(-c2cnc[nH]c2=O)cc1OC`: 205 to 206 °C; for `COc1ccc2c(=O)n3c(cc2c1)SCCC3`: 86 to 87 °C. The figure for `CCCc1c(OCc2ccc(/C=C3\SC(=S)NC3=O)cc2)ccc(C(C)=O)c1O` is 236 to 238 °C; for `CCOC(=O)[C@H](Cc1ccc(O)cc1)NC(=O)C1(NC(=O)[C@@H](SC(=O)C2CCCC2)C(C)C)CCCC1` it is 130 to 131 °C; for `CN(C)C1(c2ccccc2)CCC(c2c[nH]c3ncccc23)CC1` (stereo not given) it is 130 to 133 °C. The same measure for `c1cnc(-c2nc(C3CC3)no2)cn1`: 61 to 64 °C.
